Laboratory results from patent publication US7074789B2, “Kinase inhibitors” (Amgen Inc., priority 1999, dated 2006).
pIC50: −log10 of the molar value.

Experiments:
Format in all cases: biochemical
EGFR = biological target: T1, EGFR (Homo sapiens, UniProt P00533); assay: Kinase inhibition assay (33P transfer), EGFR; conditions: Table 2, class symbols A-E; read-out: EGFR-1
T1 construct: Kinases are expressed as either kinase domains or full length constructs; made in house
Procedure, shortened: (§1)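 Read-out: scintillation counts of 33P moved from ATP onto synthetic peptide polymer coated on the well surface, after washing with 0.5% phosphoric acid. Enzymes were tagged (GST or polyHistidine) and came from bacterial or insect-cell expression. IC50 marks 50% loss of incorporated label.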

Zap-70 = biological target: T2, Zap-70 (Homo sapiens, UniProt P43403); assay: Kinase inhibition assay (33P transfer), Zap-70; conditions: Table 3, class symbols; read-out: Zap-1
T2 construct: Kinases are expressed as either kinase domains or full length constructs; made in house
T2 sequence (P43403 1-619): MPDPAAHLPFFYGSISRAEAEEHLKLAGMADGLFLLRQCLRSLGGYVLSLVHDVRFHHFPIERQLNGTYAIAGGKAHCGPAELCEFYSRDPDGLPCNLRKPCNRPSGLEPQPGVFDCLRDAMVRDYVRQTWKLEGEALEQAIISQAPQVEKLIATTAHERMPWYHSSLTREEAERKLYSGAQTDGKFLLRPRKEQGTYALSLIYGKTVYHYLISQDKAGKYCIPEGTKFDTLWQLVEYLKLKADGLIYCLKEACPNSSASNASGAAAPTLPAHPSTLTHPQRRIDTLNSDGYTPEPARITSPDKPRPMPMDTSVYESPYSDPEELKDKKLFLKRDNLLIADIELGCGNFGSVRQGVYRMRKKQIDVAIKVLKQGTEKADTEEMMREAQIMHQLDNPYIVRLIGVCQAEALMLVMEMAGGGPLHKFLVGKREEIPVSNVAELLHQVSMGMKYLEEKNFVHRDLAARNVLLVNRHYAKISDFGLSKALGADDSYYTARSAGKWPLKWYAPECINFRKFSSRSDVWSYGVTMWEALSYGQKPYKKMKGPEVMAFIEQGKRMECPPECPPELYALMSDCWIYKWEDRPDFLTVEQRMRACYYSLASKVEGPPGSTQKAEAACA
Procedure, shortened: (§2)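 Radiometric readout: 33P incorporated into surface-bound poly(Glu,Tyr) 4:1 or poly(Arg,Ser) 3:1 is counted by liquid scintillation after a 0.5% phosphoric acid wash. Enzymes were GST or polyHis fusions (kinase domain or full length) from E. coli or High Five insect cells.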

PDGFRB = biological target: T3, PDGFRB (Homo sapiens, UniProt P09619); assay: Kinase inhibition assay (33P transfer), PDGFRB; conditions: read-out: PDGFRB-1
T3 construct: Kinases are expressed as either kinase domains or full length constructs; made in house

Itk = biological target: T4, Itk (Homo sapiens, UniProt Q08881); assay: Kinase inhibition assay (33P transfer), Itk; conditions: Table 3, class symbols; read-out: Itk-1
T4 construct: Kinases are expressed as either kinase domains or full length constructs; made in house
T4 sequence (Q08881 1-620): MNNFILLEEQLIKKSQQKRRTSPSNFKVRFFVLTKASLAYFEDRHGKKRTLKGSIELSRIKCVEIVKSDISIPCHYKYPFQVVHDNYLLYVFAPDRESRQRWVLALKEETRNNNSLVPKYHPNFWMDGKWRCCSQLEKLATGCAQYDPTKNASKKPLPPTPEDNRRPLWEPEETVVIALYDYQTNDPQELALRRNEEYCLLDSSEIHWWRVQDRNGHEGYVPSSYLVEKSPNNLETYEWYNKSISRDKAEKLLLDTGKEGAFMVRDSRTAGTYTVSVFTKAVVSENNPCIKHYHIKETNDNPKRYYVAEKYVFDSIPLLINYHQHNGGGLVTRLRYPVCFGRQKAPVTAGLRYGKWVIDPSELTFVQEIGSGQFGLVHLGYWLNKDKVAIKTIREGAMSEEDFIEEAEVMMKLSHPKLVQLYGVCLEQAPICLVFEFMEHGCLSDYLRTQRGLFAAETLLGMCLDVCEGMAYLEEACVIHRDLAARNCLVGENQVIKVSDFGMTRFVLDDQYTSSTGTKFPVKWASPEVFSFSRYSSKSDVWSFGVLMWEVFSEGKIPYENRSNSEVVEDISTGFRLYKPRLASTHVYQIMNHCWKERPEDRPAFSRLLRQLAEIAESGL
Procedure, shortened: as §1

AKT = biological target: T5, AKT (Homo sapiens, UniProt Q9Y243); assay: Kinase inhibition assay (33P transfer), AKT; conditions: Table 2, class symbols A-E; read-out: AKT3-1
T5 construct: Kinases are expressed as either kinase domains or full length constructs; made in house
Procedure, shortened: as §2

Lck = biological target: T6, Lck (Homo sapiens, UniProt P06239); assay: Kinase inhibition assay (33P transfer), Lck; conditions: Table 3, class symbols; read-out: Lck-1
T6 construct: Kinases are expressed as either kinase domains or full length constructs; made in house
Procedure, shortened: as §2

c-Met = biological target: T7, c-Met (Homo sapiens, UniProt P08581); assay: Kinase inhibition assay (33P transfer), c-Met; conditions: Table 2, class symbols A-E; read-out: Met-1
T7 construct: Kinases are expressed as either kinase domains or full length constructs; made in house
Procedure, shortened: as §1

IGFR-1 = biological target: T8, IGFR-1 (Homo sapiens, UniProt P08069); assay: Kinase inhibition assay (33P transfer), IGFR-1; conditions: Table 2, class symbols A-E
T8 construct: Kinases are expressed as either kinase domains or full length constructs; made in house

ErbB2 = biological target: T9, ErbB2 (Homo sapiens, UniProt P04626); assay: Kinase inhibition assay (33P transfer), ErbB2; conditions: read-out: ErbB2-2
T9 construct: Kinases are expressed as either kinase domains or full length constructs; made in house
Procedure, shortened: as §1

Kdr = biological target: T10, Kdr (Homo sapiens, UniProt P35968); assay: Kinase inhibition assay (33P transfer), Kdr; conditions: Table 3, class symbols; read-out: KDR-1
T10 construct: Kinases are expressed as either kinase domains or full length constructs; made in house
Procedure, shortened: as §2

Measured: pIC50

T6 sequence (P06239 whole entry, species assumed, the tested form may be a part): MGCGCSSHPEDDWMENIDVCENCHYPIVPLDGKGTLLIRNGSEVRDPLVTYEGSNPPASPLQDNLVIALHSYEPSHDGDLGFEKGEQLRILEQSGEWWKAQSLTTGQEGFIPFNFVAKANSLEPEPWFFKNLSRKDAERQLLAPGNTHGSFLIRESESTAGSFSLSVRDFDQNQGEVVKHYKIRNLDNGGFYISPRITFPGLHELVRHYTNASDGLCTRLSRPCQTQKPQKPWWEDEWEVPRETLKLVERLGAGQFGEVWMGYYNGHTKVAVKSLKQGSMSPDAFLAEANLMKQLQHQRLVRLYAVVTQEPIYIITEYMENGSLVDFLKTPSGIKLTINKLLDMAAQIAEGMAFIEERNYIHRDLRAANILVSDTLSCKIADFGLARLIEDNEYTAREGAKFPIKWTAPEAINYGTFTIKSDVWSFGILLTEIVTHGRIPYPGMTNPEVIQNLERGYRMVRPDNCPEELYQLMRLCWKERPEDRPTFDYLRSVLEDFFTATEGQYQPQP
T3 sequence (P09619 33-1106, species assumed): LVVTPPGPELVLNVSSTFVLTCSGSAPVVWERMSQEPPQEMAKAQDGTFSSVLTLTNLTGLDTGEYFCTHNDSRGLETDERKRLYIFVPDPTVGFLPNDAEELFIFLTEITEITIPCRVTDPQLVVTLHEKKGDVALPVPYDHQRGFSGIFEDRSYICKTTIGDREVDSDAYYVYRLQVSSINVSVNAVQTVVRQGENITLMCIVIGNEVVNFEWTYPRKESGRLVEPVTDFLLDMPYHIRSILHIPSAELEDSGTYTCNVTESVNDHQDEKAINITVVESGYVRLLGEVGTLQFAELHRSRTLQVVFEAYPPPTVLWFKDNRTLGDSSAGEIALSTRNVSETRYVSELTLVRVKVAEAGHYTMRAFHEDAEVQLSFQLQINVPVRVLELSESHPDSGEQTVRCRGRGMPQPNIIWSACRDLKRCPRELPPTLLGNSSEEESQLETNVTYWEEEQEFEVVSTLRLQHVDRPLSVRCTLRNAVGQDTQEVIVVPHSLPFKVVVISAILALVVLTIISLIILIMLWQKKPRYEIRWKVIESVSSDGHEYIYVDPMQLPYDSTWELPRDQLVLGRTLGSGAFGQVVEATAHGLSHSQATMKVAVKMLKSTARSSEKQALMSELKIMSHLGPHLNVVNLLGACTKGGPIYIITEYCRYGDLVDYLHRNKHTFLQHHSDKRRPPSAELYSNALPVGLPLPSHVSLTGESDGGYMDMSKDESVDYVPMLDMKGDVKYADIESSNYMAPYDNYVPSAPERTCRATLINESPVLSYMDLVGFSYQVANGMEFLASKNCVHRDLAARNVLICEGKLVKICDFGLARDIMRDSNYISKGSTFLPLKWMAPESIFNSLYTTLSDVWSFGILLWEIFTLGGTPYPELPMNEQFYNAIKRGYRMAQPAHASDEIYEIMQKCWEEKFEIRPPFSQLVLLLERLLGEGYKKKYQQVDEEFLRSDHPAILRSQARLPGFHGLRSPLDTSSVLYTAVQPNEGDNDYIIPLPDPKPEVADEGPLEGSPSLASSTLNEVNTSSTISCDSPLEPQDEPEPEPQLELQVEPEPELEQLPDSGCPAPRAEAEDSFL
T10 sequence (P35968 20-1356, species assumed): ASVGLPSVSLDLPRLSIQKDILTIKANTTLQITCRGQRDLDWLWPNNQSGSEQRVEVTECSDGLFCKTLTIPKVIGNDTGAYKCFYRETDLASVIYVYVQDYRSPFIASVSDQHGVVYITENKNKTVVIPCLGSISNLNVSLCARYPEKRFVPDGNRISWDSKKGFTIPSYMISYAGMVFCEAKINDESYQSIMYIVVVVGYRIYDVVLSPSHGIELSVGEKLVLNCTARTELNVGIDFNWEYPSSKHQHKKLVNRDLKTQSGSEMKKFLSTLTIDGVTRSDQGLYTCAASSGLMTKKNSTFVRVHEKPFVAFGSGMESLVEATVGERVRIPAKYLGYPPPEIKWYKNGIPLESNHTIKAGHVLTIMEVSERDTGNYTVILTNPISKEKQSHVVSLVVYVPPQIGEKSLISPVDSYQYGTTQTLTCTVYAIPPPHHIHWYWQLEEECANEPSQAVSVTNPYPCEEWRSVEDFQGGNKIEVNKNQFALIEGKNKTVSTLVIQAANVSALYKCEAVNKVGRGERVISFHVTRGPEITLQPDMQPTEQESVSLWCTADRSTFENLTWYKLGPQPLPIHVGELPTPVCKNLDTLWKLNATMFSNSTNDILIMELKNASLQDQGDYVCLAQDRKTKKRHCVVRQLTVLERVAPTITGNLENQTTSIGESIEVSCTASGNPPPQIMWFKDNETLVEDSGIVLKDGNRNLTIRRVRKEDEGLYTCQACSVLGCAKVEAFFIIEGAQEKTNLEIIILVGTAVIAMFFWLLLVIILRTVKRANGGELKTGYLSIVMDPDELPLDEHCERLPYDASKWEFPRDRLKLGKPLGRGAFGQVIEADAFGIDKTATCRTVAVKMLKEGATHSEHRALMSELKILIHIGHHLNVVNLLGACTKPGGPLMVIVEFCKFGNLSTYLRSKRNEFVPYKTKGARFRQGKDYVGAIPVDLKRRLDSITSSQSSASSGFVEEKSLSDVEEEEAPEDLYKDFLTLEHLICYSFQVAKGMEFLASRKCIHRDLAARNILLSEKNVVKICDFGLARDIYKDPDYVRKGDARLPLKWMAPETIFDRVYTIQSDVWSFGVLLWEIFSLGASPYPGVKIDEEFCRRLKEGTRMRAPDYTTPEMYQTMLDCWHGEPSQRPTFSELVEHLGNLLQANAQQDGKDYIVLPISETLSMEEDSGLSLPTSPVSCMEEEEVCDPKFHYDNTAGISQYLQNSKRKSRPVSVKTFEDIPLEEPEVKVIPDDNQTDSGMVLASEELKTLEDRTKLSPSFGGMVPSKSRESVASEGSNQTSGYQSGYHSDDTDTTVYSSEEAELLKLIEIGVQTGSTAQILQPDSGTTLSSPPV
T9 sequence (P04626 23-1255, species assumed): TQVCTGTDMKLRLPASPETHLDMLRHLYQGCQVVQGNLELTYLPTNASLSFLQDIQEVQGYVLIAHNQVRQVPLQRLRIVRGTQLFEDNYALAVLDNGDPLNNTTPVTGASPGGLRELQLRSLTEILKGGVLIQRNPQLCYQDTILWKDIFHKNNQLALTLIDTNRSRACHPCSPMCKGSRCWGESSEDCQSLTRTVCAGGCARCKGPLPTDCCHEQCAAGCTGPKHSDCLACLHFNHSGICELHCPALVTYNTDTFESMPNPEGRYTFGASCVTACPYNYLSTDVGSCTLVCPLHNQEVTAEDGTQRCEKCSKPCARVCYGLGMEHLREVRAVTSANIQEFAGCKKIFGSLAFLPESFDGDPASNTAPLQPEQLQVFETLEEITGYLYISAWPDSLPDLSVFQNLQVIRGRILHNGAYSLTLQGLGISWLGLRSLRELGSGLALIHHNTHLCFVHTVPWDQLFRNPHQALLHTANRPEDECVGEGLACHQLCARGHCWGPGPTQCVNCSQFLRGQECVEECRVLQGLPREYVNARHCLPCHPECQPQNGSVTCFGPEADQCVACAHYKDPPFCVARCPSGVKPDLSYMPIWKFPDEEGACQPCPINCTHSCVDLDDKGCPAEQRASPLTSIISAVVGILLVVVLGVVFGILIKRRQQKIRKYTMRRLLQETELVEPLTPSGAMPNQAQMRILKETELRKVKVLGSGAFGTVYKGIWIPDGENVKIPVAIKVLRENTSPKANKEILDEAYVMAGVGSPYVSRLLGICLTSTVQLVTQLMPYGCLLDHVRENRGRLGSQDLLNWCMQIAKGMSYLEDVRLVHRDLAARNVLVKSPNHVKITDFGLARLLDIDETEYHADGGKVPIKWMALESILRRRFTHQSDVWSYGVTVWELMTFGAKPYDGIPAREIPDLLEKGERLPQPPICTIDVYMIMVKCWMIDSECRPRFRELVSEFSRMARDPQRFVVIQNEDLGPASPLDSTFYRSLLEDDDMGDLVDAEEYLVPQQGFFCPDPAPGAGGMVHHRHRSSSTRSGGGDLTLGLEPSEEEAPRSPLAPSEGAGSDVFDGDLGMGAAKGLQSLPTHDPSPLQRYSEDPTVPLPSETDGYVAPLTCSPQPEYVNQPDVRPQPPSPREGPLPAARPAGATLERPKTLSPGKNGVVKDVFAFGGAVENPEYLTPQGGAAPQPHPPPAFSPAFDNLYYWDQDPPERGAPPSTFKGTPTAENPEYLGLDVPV
T5 sequence (Q9Y243 whole entry, the tested form may be a part): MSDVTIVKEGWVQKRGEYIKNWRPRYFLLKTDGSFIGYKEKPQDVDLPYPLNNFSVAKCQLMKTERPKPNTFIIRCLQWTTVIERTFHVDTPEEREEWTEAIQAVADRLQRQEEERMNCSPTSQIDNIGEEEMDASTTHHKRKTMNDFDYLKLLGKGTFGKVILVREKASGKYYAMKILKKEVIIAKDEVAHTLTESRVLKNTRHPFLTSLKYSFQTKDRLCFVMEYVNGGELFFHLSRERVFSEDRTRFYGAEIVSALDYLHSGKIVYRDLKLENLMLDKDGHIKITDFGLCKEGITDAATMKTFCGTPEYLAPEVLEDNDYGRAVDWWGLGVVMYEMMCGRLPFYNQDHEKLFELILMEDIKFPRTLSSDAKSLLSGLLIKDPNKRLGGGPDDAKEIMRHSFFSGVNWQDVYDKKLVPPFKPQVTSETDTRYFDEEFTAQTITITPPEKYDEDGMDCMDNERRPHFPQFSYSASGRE

COc1cc(Nc2ncnc(-c3cccnc3NC(C)C)n2)ccc1NC(=O)CCCN1CCNCC1 [Compound 1096]
5.16 to 5.32: Itk
5.32 to 6.10: Lck | Kdr
5.05 to 5.16: AKT | c-Met
> 6.10: PDGFRB
< 5.05: all other assays above

CN(c1ccc(Cl)c(Cl)c1)c1ncnc(Nc2ccc3c(cnn3Cc3ccccc3)c2)n1 [Compound 903]
5.13 to 5.30: PDGFRB | c-Met | ErbB2
> 6.08: EGFR
< 5.02: all other assays above

O=C(O)Cc1cccc(Nc2ncnc(-c3cccnc3NCc3ccccc3)n2)c1 [Compound 1099]
5.24 to 6.01: Lck | c-Met | ErbB2
> 6.01: EGFR | PDGFRB | Kdr
< 4.96: all other assays above

O=C(O)CCc1cccc(Nc2ncnc(Nc3cc(-c4ccco4)[nH]n3)n2)c1 [Compound 887]
< 4.94: Zap-70
5.05 to 5.21: Itk
> 5.99: EGFR | c-Met | IGFR-1 | Kdr
5.21 to 5.99: all other assays above

COc1cc(Nc2ncnc(-c3cccnc3NC3CCCCC3)n2)cc(OC)c1OC [Compound 848]
4.99 to 5.10: Lck
> 6.04: PDGFRB | Kdr
< 4.99: all other assays above

FC(F)(F)Oc1cccc(Nc2ncnc(Nc3ccc4c(cnn4Cc4ccccc4)c3)n2)c1 [Compound 907]
5.30 to 6.08: ErbB2
5.13 to 5.30: c-Met
> 6.08: EGFR
< 5.03: all other assays above

COC(=O)c1ccc(-c2cc(Nc3ncnc(Nc4cc(Cl)cc(Cl)c4)n3)[nH]n2)cc1 [Compound 811]
5.12 to 5.28: IGFR-1
< 5.01: all other assays above

CN(c1cccc(Cl)c1)c1ncnc(Nc2cccc(Cn3ccnn3)c2)n1 [Compound 678]
5.21 to 5.99: Itk | Lck | Kdr
< 4.94: Zap-70 | AKT | IGFR-1
> 5.99: all other assays above

c1ccc(-c2cc(Nc3ncnc(Nc4cccc(-c5cnco5)c4)n3)[nH]n2)cc1 [Compound 1010]
5.05 to 5.22: Itk
> 6.00: c-Met | IGFR-1
< 4.94: Zap-70
5.22 to 6.00: all other assays above

CCN(CC)CCN(C)c1ncnc(Nc2ccc(OC)c(OC)c2)n1 [Compound 870]
< 4.90: all assays above

CN(c1ccc2c(cnn2Cc2ccccc2)c1)c1ncnc(Nc2cccc(Br)c2)n1 [Compound 667]
5.31 to 6.08: ErbB2
> 6.08: EGFR
5.03 to 5.14: c-Met
< 5.03: all other assays above

CNS(=O)(=O)Cc1ccc(Nc2ncnc(Nc3cc(-c4ccc(C(=O)OC)cc4)n[nH]3)n2)cc1 [Compound 883]
5.15 to 5.31: EGFR | PDGFRB | IGFR-1
> 6.09: c-Met
< 5.04: all other assays above

Fc1ccc(Nc2ncnc(Nc3ccc4c(cnn4Cc4ccccc4)c3)n2)cc1F [Compound 902]
5.09 to 5.25: IGFR-1
5.25 to 6.03: AKT | c-Met | ErbB2
> 6.03: EGFR
< 4.98: all other assays above

COc1cc(Nc2ncnc(N3CCCc4c(Cl)cccc43)n2)cc(OC)c1OC [Compound 643]
> 6.03: EGFR | PDGFRB
5.25 to 6.03: c-Met | ErbB2 | Kdr
< 4.98: all other assays above

COc1ccc(Nc2ncnc(N(C)CCc3ccccn3)n2)cc1OC [Compound 869]
5.02 to 5.18: Itk
5.18 to 5.96: EGFR | PDGFRB
4.91 to 5.02: c-Met | ErbB2 | Kdr
< 4.91: all other assays above

c1ccc(CNc2ncccc2-c2ncnc(Nc3ccc(N4CCOCC4)cc3)n2)cc1 [Compound 1105]
> 6.04: PDGFRB | Kdr
< 4.99: all other assays above

c1ccc(Cn2ncc3cc(Nc4ncnc(NCCN5CCCC5)n4)ccc32)cc1 [Compound 871]
4.96 to 5.07: PDGFRB
5.07 to 5.24: Itk
< 4.96: all other assays above

COC(=O)c1ccc(-c2cc(Nc3ncnc(NCCc4c[nH]c5ccccc45)n3)[nH]n2)cc1 [Compound 806]
< 5.00: Zap-70 | PDGFRB | AKT
5.28 to 6.06: all other assays above

COc1cc(Nc2ncnc(-c3cccnc3NCc3cccc4ccccc34)n2)cc(OC)c1OC [Compound 844]
> 6.09: Kdr
5.15 to 5.31: IGFR-1
5.31 to 6.09: PDGFRB | ErbB2
< 5.04: all other assays above
